Assay [1] relates to Aps-t.
For assay [2], the system named is Aps-t. The following applies: 50 mM MES pH 6, 100 mM NaCl, 1 mM MgCl2, 37 °C; pNPP stock in 0.1 M sodium acetate pH 4.5.

SMILES strings stand for the structures. Like-named read-outs stand apart in the source and are kept apart here.

Take `Nc1ncnc2c1ncn2[C@@H]1O[C@H](COP(=O)(O)OP(=O)(O)O)[C@@H](O)[C@H]1O` [ADP]: the Km in assay [1] was found to be 190 ± 10 µM.

With `Nc1ncnc2c1ncn2[C@@H]1O[C@H](COP(=O)(O)O)[C@@H](O)[C@H]1O` [AMP], in assay [1], the Km was found to be 270 ± 20 µM.

Take `Nc1ncnc2c1ncn2[C@@H]1O[C@H](COP(=O)(O)OP(=O)(O)OP(=O)(O)O)[C@@H](O)[C@H]1O` [ATP]: in assay [1], the Km is 1000 ± 120 µM.

For the compound `O=[N+]([O-])c1ccc(OP(=O)(O)O)cc1` [pNPP], the Km in assay [2] was 94 ± 14 µM.
